Reference: paper PMC7642680, “The Nontypeable Haemophilus influenzae Major Adhesin Hia Is a Dual-Function Lectin That Binds to Human-Specific Respiratory Tract Sialic Acid Glycan Receptors” (mBio, 2020)
Where two headings read alike, the source gives them in different places.

Legend:
[1] = target: T1, Hia (full-length, expressed on E. coli BL21) (Haemophilus influenzae, UniProt Q8GM79); assay: SPR, Hia-expressing BL21 cells immobilised (Biacore C1 chip); assay type: cell-based; details: 1x PBS pH 7.4; single-cycle kinetics; whole cells
T1 construct: trimeric autotransporter

[2] = target: T2, Hia (full-length, expressed on E. coli BL21) (Haemophilus influenzae, UniProt Q8GM79, A619R); details: read-out: 2-3 SLN-Ac; 1x PBS pH 7.4; whole cells
From the text: (§1) SPR, Hia-expressing BL21 cells immobilised (Biacore C1 chip) on Hia (full-length, expressed on E. coli BL21)

[3] = target: Hia (full-length, expressed on E. coli BL21) (Haemophilus influenzae, UniProt Q8GM79, D618K); details: 1x PBS pH 7.4, whole cells
From the text: as §1

[4] = target: T2, Hia (full-length, expressed on E. coli BL21); details: read-out: NB, OneStep injection at 10 μM, whole cells
From the text: SPR, OneStep injection, Hia-expressing BL21 cells on Hia (full-length, expressed on E. coli BL21)

[5] = target: Hia BD1 (binding domain 1) (Haemophilus influenzae, UniProt Q8GM79); assay: SPR, purified BD1 immobilised (Biacore CM5 amine capture); details: 1x PBS pH 7.4; single-cycle kinetics

Question: For `CC(=O)N[C@H]1[C@H](O[C@H]2[C@@H](O)[C@@H](CO)O[C@@H](O[C@H]3[C@H](O)[C@@H](O)C(O)O[C@@H]3CO)[C@@H]2O)O[C@H](CO)[C@@H](O[C@@H]2O[C@H](CO)[C@H](O)[C@H](O[C@@]3(C(=O)O)C[C@H](O)[C@@H](NC(C)=O)[C@H]([C@H](O)[C@H](O)CO)O3)[C@H]2O)[C@@H]1O` (stereo partly shown) [2-3 Ac-SLNnT], which Kd [1] is on record?
Answer: Its Kd is 2030 ± 1490 nM.

Question: How did the Kd [1] turn out when `CC(=O)N[C@H]1[C@H](O[C@H]2[C@@H](O)[C@@H](CO)O[C@@H](O[C@H]3[C@H](O)[C@@H](O)C(O)O[C@@H]3CO)[C@@H]2O)O[C@H](CO)[C@@H](O[C@@H]2O[C@H](CO)[C@H](O)[C@H](O[C@@]3(C(=O)O)C[C@H](O)[C@@H](NC(=O)CO)[C@H]([C@H](O)[C@H](O)CO)O3)[C@H]2O)[C@@H]1O` (stereo partly shown) [2-3 Gc-SLNnT] was run?
Answer: The Kd was 5440 ± 1110 nM.

Question: How did the Kd [1] turn out when `CC(=O)N[C@H]1[C@H]([C@H](O)[C@H](O)CO)O[C@@](O[C@H]2[C@@H](O)[C@@H](CO)O[C@@H](O[C@H]3[C@H](O)[C@@H](NC(C)=O)C(O)O[C@@H]3CO)[C@@H]2O)(C(=O)O)C[C@@H]1O` (stereo partly shown) [2-3 SLN-Ac] was run?
Answer: The Kd was 2030 ± 443 nM.

Question: What about the Kd [2] of the same compound?
Answer: The Kd was 3040 ± 700 nM.

Question: What about the Kd ([3]; read-out: 2-3 SLN-Ac) of the same compound?
Answer: The Kd was 842 ± 178 nM.

Question: Which Kd [1] does the source give for `CC(=O)N[C@H]1C(O)O[C@H](CO)[C@@H](O[C@@H]2O[C@H](CO)[C@H](O)[C@H](O[C@@]3(C(=O)O)C[C@H](O)[C@@H](NC(=O)CO)[C@H]([C@H](O)[C@H](O)CO)O3)[C@H]2O)[C@@H]1O` (stereo partly shown) [2-3 SLN-Gc] here?
Answer: Its Kd is 10100 ± 320 nM.

Question: How did the Kd [1] turn out when `CC(=O)N[C@H]1[C@H]([C@H](O)[C@H](O)CO)O[C@](OC[C@H]2O[C@@H](O[C@H]3[C@H](O)[C@@H](NC(C)=O)C(O)O[C@@H]3CO)[C@H](O)[C@@H](O)[C@H]2O)(C(=O)O)C[C@@H]1O` (stereo partly shown) [2-6 SLN-Ac] was run?
Answer: Its Kd is 185 ± 59.9 nM.

Question: And the Kd ([3]; read-out: 2-6 SLN-Ac)?
Answer: Its Kd is 21 ± 1 nM.

Question: What about the Kd [4] of the same compound?
Answer: Its Kd is > 10000 nM.

Question: What about the Kd [5] of the same compound?
Answer: Its Kd is 64.9 ± 5.6 nM.
